Target: T1, αVβ3 (Homo sapiens, UniProt P05106+P06756)
T1 construct: purchased R & D 3050-AV
Experiment: Human αVβ3 solid phase assay (fibrinogen binding to coated αVβ3)
Conditions: αVβ3 coated plates, fibrinogen as ligand
Description: The following assay was conducted to assess αVβ3 binding affinity of the αVβ3-targeted compounds of this invention.
Human αVβ3 solid phase assay:
Immuno 96-well Plates (NUNC, Part#439454) were coated with αVβ3 (R & D, Cat#3050-AV) by adding 100 uL of αVβ3 (lx) to each well and incubating the plates overnight at […]. Buffer used was Buffer A: 20 mM Tris, 150 mM NaCl, 1 mM CaCl2, 1 mM MgCl2, pH7.4. After removal of the coating reagent, 150 uL of 3.5% BSA in Buffer A was added to each well to block the plates for 105 minutes at […]. After blocking, plates were washed 5 times with 200 uL of Buffer B (Buffer A+1 mM MnC12). 50 uL of test compound solution (2×) in 5% DMSO and 50 uL of fibrinogen (2×) (Innovative Research, Cat# IFIB) were then added to each well. Plates were shaken for 2 minutes, and then incubated for 2 hours for 370 C. After the plates were washed 5 times with 200 uL of Buffer B, the 1st antibody rabbit anti-human fibrinogen (Innovative Research, Cat IASHFBGN-GF) in the amount of 100 uL/well, and the 2nd antibody Goat anti-rabbit IgG Horse-radish peroxidase conjugate (Invitrogen, Cat#G21234) in the amount of 50 uL/well were added to plates, respectively. […] After being added 100 uL/well Stop Buffer (1.0 M Phosphoric Acid […]), plates were read on Envision at Absorbance mode 450 nm.

T1 sequence (P06756 31-992 limits assumed): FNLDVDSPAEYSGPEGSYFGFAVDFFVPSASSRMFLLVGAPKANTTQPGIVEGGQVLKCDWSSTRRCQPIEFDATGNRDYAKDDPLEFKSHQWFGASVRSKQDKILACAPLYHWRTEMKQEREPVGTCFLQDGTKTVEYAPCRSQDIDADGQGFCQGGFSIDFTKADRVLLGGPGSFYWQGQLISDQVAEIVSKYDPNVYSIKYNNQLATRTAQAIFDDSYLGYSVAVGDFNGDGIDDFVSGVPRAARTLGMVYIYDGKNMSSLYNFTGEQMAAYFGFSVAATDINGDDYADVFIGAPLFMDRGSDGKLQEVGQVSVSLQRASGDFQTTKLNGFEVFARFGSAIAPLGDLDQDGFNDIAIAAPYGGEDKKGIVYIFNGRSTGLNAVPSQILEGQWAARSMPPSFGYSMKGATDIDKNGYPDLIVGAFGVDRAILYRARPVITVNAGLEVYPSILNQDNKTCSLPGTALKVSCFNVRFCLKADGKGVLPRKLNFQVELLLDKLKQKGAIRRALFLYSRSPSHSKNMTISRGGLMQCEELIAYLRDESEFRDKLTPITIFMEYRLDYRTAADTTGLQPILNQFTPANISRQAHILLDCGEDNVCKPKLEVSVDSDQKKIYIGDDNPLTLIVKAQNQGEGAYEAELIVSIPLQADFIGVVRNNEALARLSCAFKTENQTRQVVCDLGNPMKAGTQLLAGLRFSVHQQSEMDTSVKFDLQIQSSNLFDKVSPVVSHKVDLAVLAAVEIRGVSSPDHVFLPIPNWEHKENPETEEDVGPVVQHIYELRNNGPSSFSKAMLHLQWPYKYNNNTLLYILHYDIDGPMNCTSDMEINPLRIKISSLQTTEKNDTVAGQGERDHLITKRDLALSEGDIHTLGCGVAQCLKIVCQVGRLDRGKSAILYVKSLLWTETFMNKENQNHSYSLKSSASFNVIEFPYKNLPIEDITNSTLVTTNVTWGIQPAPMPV
T1 sequence (P05106 27-718 limits assumed): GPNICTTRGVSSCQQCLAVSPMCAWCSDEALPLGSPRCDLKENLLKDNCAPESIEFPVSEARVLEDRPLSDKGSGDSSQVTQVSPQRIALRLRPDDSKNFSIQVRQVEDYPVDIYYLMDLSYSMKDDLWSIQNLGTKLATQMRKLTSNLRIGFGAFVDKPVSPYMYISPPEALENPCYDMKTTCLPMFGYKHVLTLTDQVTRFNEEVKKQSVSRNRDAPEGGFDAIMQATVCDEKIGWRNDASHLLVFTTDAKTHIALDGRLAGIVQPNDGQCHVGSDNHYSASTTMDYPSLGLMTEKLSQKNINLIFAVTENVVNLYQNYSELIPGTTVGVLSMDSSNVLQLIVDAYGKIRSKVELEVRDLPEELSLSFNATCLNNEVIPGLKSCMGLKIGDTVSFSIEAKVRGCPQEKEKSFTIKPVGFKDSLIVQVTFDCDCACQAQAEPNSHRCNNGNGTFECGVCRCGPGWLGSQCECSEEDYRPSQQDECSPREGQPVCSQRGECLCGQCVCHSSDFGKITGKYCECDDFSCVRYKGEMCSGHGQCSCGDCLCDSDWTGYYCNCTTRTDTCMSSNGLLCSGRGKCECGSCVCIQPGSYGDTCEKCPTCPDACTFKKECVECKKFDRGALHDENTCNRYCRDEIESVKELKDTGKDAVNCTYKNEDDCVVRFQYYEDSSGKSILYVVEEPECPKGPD

IC50: ~2 nM
SMILES: COc1ccc(NC(=O)[C@H](CC(=O)O)NC(=O)CNC(=O)c2cccc(N=C(N)N)c2)cc1 [compound 141]

Reference: patent US9586916B2, “Integrin antagonist conjugates for targeted delivery to cells expressing alpha-V-beta-3” (Hoffmann-La Roche Inc., priority 2012, dated 2017)
